Results on twelve compounds are retold here after patent publication US20170334865A1, “DDR2 INHIBITORS AND METHODS OF USING” (WASHINGTON UNIVERSITY, priority 2014, published 2017).

Structures are written as SMILES.

For the first assay, the target named is T1, DDR2 extracellular domain (ECD) (Homo sapiens, UniProt Q16832).
T1 sequence (Q16832 22-399 limits assumed): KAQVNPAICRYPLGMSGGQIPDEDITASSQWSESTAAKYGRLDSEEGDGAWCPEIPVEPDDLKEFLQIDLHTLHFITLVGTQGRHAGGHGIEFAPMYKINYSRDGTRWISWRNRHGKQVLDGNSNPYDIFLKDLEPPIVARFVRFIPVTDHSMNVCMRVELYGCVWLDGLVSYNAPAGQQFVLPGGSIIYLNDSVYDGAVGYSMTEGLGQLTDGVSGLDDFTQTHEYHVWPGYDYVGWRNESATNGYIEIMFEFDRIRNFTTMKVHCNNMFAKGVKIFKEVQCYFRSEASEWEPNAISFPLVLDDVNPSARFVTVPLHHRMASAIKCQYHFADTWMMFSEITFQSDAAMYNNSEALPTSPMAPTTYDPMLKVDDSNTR
Description: in vitro ELISA-type assay, binding of soluble DDR2 ECD to immobilized collagen triple helical peptide. Conditions: values given in μM; read-out: IC50, Inhibition of DDR2-collagen binding activity. The protocol: The activity of the synthesized compounds was assayed using an in vitro ELISA-type assay to measure the binding of purified, soluble DDR2 extracellular domain (ECD) to an immobilized substrate. The substrate used was a high affinity, specific, triple helical peptide (see Xu et al., PLoS One. 2012; 7(12): e52209), which represents the minimal DDR2 specific binding domain within collagens I-III.
DDR2-collagen binding activity was measured in the presence of 250 nM, 500 nM, or 2 μM of test compound or DMSO control.
For the compound `CCOc1ccc2nc3ccc(=O)cc-3oc2c1` [7-ethyloxy-phenoxazin-3-one, reference compound], the IC50 is 4 µM.
Same read-out and setting: the value for `CCCCCOc1ccc2nc3ccc(=O)cc-3oc2c1` [WRG-1, 7-pentyloxy-phenoxazin-3-one] was 3.5 µM.
On to `COCCOc1ccc2nc3ccc(=O)cc-3oc2c1` [WRG-R-4], for which the IC50 was determined as 14 µM.
The same measure, in the same setting: the value for `O=C(Oc1ccc2nc3ccc(=O)cc-3oc2c1)c1ccccc1` [WRG-R-6] was 1.41 µM; that for `O=c1ccc2nc3ccc(OCc4cccnc4)cc3oc-2c1` [WRG-R-9] was 1.2 µM; that for `O=C(Nc1ccccc1)Oc1ccc2nc3ccc(=O)cc-3oc2c1` [WRG-R-12] was over 100 µM.
Regarding `O=c1ccc2nc3ccc(NS(=O)(=O)c4ccccc4)cc3oc-2c1` [WRG-R-20], the IC50 is over 100 µM.

Staying with this assay, now noted: values in nM; read-out: IC50, Inhibition of DDR2-collagen binding activity.
In the case of `O=c1ccc2nc3ccc(OCc4ccccc4)cc3oc-2c1` [WRG-2, 7-benzyloxy-phenoxazin-3-one], the IC50 stood at 0.461 µM.
On the same count and under the same terms, the value for `COc1cccc(COc2ccc3nc4ccc(=O)cc-4oc3c2)c1` [WRG-R-5] was 0.393 µM; that for `O=c1ccc2nc3ccc(OS(=O)(=O)c4ccccc4)cc3oc-2c1` [WRG-R-7] was 0.558 µM; that for `O=c1ccc2nc3ccc(OCc4ccncc4)cc3oc-2c1` [WRG-R-10] was 0.311 µM.
On the same count and under the same terms, for `O=c1ccc2nc3ccc(OCc4ccc(OC(F)F)cc4)cc3oc-2c1` [WRG-R-27] the value was 0.11 µM.
